Results taken from US20040253192A1, “Breath Freshening and Oral Cleansing Product Using Cardamom Oil” (priority 2002, published 2004).
In brackets after ≈: the same amount, converted by molar mass.

Tests used:
Type in all cases: cell-based
Fusobacterium nucleatum [1] = assay: MIC (minimum inhibitory concentration) study, 96 well microtiter plates; conditions: F. nucleatum, 48 hours at 37° C., turbidity at 660 nm
Experimental: (§1) In vitro tests were conducted with a gram positive supragingival plaque bacterium, Streptococcus mutans. In addition, two subgingival plaque bacteria associated with oral malodor were tested, Porphyromonas gingivalis and Fusobacterium nucleatum. The MIC (Minimum Inhibitory Concentrations) study protocol is as follows. Chlorhexidine was used as a positive control and sterile water was used as a negative control. Cardamom oil was suspended in 10% methanol with 3.8% Tween 80. […] 96 well microtiter plates were used for this study. Each well contained 5×10^5 colony forming units/ml of bacteria, serially diluted agents and bacterial growth medium. All bacterial cultures were incubated at 37° C. and stationary. Bacterial growth was estimated spectrophotometrically at 660 nm, after 48 hours. The MIC for each test bacteria was defined as the minimum concentration of test compound limiting turbidity to […].

Porphyromonas gingivalis [2] = assay: as above; conditions: P. gingivalis, 48 hours at 37° C., turbidity at 660 nm
Experimental: as §1

Fusobacterium nucleatum [3] = assay: MBC (minimum bactericidal concentration) determination, plating on blood agar; conditions: F. nucleatum, lowest concentration killing at least 99.9% of initial inoculum, plates 48 hours at 37° C.
Experimental: (§2) The MBC (Minimum bactericidal concentrations) were determined using the 96 well microtiter plate serial dilutions as described above for MIC studies. Serial dilution of cultures in wells showing no visible growth were performed and 10 microliters of culture were plated in triplicate on blood agar plates. Viable colonies were scored after incubation of the plates for 48 hours at 37° C. For each test bacterium, the number of CFU/ml were determined in the initial inoculum. The MBC was defined as the lowest concentration of a test compound that killed at least 99.9% of the cells present in the initial inoculum.

Porphyromonas gingivalis [4] = assay: as above; conditions: P. gingivalis, lowest concentration killing at least 99.9% of initial inoculum, plates 48 hours at 37° C.
Experimental: as §2

MIC (Fusobacterium nucleatum [1]): 1.25 µg/mL (≈ 2.47 µM)
MIC (Porphyromonas gingivalis [2]): 1.25 µg/mL (≈ 2.47 µM)
SMILES: [H]/N=C(\N/C(=N/[H])NCCCCCCNC(=N)NC(=N)Nc1ccc(Cl)cc1)Nc1ccc(Cl)cc1 [Cholorhexidine, Chlorhexidine]
MBC (Fusobacterium nucleatum [3]): 1.25 µg/mL (≈ 2.47 µM)
MBC (Porphyromonas gingivalis [4]): 1.25 µg/mL (≈ 2.47 µM)
